Test results: US8431596B2 (Cancer Research Technology Limited, priority 2007, dated 2013)

Experiments:
[1] = test system: Axl activation via the downstream phosphorylation of Akt (serine 473); test: AXL Inhibition Cell Based ELISA Assay (FACE kit, Gas6-stimulated MDA-MB-231 cells); details: Homo sapiens, first data set, Gas6 200 ng/ml, pS473 Akt
Procedure: AXL Inhibition Cell Based ELISA Assay
This cell based ELISA assay is a simple cell-based method used to monitor activation of proteins by phosphorylation. The Active Motif, Fast Activated Cell-based ELISA (FACE) kit (Active Motif Cat No: 48120) was used in this case to monitor the inhibition, by test compounds, of Axl activation via the downstream phosphorylation of Akt (serine 473). In this system, cells are cultured in 96 well plates and treated with test compounds and Axl is activated by the introduction of Gas6 (Axl ligand). The inhibition of Axl can be directly assessed via the reduction of pS^473 Akt levels.
Active Motif FACE Kit reagents (Active Motif Cat. No: 48120(AKT)).
10% hydrogen peroxide (Sigma H1009).
10% Sodium azide (Sigma 7128).
37% Formaldehyde (Sigma F8775).
Axl/Fc conjugate (R&D Systems 154-AL).
Recombinant mouse Gas6 (R&D Systems 986-GS-025).
All cell incubations were carried out in humidified incubators set at 5% CO2 and 37° C. […]
Immunostaining (carried out as outlined in FACE kit protocol). […] 100 μL developing solution was added to each well and monitored for colour change to medium to dark blue (2 to 20 minutes). 100 μL of stop solution was then added and absorbance was read at 450 nm within 5 minutes of addition.
Crystal Violet cell staining. After reading absorbance at 450 nm, the plates were washed twice with 200 μL wash buffer and twice with 200 μL PBS. […]

[2] = target: T1, AXL (human catalytic domain) (Homo sapiens, UniProt P30530); test: AXL (human catalytic domain) Enzyme Activity Assay (IMAP fluorescence polarisation); assay type: biochemical
T1 construct: purchased Upstate Ltd. 14-512
T1 sequence (P30530 473-894): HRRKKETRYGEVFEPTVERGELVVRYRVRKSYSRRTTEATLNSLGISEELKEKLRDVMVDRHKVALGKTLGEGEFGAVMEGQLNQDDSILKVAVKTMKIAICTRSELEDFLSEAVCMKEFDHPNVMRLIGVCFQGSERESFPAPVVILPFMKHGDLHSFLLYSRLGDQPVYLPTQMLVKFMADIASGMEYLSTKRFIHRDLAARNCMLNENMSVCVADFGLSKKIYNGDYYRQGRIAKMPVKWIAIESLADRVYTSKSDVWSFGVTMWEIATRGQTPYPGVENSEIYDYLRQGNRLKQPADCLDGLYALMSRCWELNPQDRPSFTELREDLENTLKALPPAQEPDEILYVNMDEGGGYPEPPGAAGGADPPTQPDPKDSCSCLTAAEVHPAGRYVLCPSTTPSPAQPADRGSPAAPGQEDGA
Method in brief: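 IMAP FP readout (Ex485/Em535, after overnight binding) measured inhibition of the human AXL catalytic domain (aa473-894, 15 nM final) acting on 100 nM 5FAM-CSK-tide at 150 μM ATP, equal to KM. Reactions ran 60 min at room temperature in pH 7.0 HEPES buffer; IC50 from 10-point curves.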

`CCNCCOc1ccc(Nc2nc3cccc(-c4ccc5c(c4)OCCO5)n3n2)cc1` [XX-070] showed an IC50 [1] of 1030 nM, an IC50 ([2]; first data set, recombinant AXL isoform 1 aa473-894, 150 μM ATP) of less than 1000 nM and an IC50 ([2]; further data set (WW-001 through WW-169, XX-001 through XX-469, YY-001 through YY-016, ZZ-001 through ZZ-003), 150 μM ATP) of no more than 100 nM.
